Results reported in patent US7772271B2 (priority 2004, dated 2010).

Row | SMILES | melting point [°C]
1 | Cc1cc(NC(=O)O[C@H](C)C2CC2)ccc1-c1c(C#N)c2ccc(Oc3nccnc3C#N)cc2n1C1CCC1 [Compound 3334] | 108 to 116
2 | CCCS(=O)(=O)Nc1cc(C)c(-c2c(C#N)c3ccc(Oc4ncccc4C#N)cc3n2C2CCC2)cc1C [Compound 3335] | 227 to 230
3 | CCCS(=O)(=O)Nc1cc(C)c(-c2c(C#N)c3ccc(Oc4nccnc4C#N)cc3n2C2CCC2)cc1C [Compound 3336] | 257 to 259
4 | Cc1cccn(-c2ccc3c(C#N)c(-c4ccc(NC(=O)O[C@H](C)C5CC5)cc4)n(C4CCC4)c3c2)c1=O [Compound 3338] | 280 to 281
5 | Cc1cccn(-c2ccc3c(C#N)c(-c4ccc(NC(=O)OC(C)C)cc4)n(C4CCC4)c3c2)c1=O [Compound 3339] | 284 to 285
6 | Cc1cccn(-c2ccc3c(C#N)c(-c4ccc(NS(=O)(=O)CC(C)C)cc4)n(C4CCC4)c3c2)c1=O [Compound 3340] | 290 to 291
7 | Cc1cccn(-c2ccc3c(C#N)c(-c4ccc(NC(=O)O[C@H](C)C(F)(F)F)cc4)n(C4CCC4)c3c2)c1=O [Compound 3341] | 265 to 266
8 | Cc1cccn(-c2ccc3c(C#N)c(-c4ccc(NC(=O)NC(C)C)cc4)n(C4CCC4)c3c2)c1=O [Compound 3342] | 266 to 267.5
9 | CCCS(=O)(=O)Nc1ccc(-c2c(C#N)c3ccc(Oc4ncccc4C#N)cc3n2C2CCC2)c(OC)c1 [Compound 3344] | 227 to 230
10 | CCCS(=O)(=O)Nc1ccc(-c2c(C#N)c3ccc(Oc4ncccc4C#N)cc3n2C2CCC2)c(F)c1 [Compound 3346] | 113 to 116
11 | N#Cc1c(-c2ccc(NC3CCC3)nc2)n(C2CCC2)c2cc(Oc3ncccn3)ccc12 [Compound 3348] | 229 to 231
12 | CCn1c(-c2ccc3c(ccn3S(C)(=O)=O)c2)c(C#N)c2ccc(OC)cc21 [compound 1330, 1-ethyl-1′-methanesulfonyl-6-methoxy-1H,1′H-[2,5′]biindolyl-3-carbonitrile] | 148 to 151
13 | CCn1c(-c2ccc3c(ccn3S(=O)(=O)CC)c2)c(C#N)c2ccc(OC)cc21 [compound 1331] | 157 to 160
14 | CS(=O)(=O)Nc1ccc(-c2c(C#N)c3ccc(OC(F)F)cc3n2CC2CCCO2)cc1 (stereo not shown) [compound 1334, N-{4-[3-cyano-6-difluoromethoxy-1-(tetrahydro-furan-2-ylmethyl)-1H-indole-2-yl]-phenyl}-methanesulfonamide] | 87 to 88
15 | CCOc1ccc(-c2c(C#N)c3ccc(N4CCN(C(=O)OC(C)(C)C)CC4)cc3n2CC)cc1 [compound 1337, 4-[3-cyano-2-(4-ethoxyphenyl)-1-ethylindol-6-yl]piperazine-1-carboxylic acid tert-butyl ester] | 183 to 184
16 | CCOC(=O)Nc1ccc(-c2c(C#N)c3ccc(N4CCN(C)CC4)cc3n2CC)cc1 [compound 1339] | 177 to 178
17 | CCC(=O)Nc1ccc(-c2c(C#N)c3ccc(N4CCN(C)CC4)cc3n2CC)cc1 [compound 1341, N-{4-[3-cyano-1-ethyl-6-(4-methylpiperazin-1-yl)-indol-2-yl]phenyl}propionamide] | 170 to 171
18 | CCN(CC)c1nc2ccc(-c3c(C#N)c4ccc(OC)cc4n3CC)cc2s1 [compound 1343, 2-(2-Diethylaminobenzothiazol-6-yl)-1-ethyl-6-methoxy-1H-indole-3-carbonitrile] | 155 to 158
19 | CCOc1ccc2c(C#N)c(-c3ccc(N4CCCOC4=O)cc3)n(C3CCC3)c2c1 [compound 1346, 1-cyclobutyl-6-ethoxy-2-[4-(2-oxo-[1,3]oxazinan-3-yl)-phenyl]-1H-indole-3-carbonitrile] | 226 to 228
20 | CCOC(=O)Nc1ccc(-c2c(C#N)c3ccc(OCCOC)cc3n2C2CCC2)cc1 [compound 1397, {4-[3-cyano-1-cyclobutyl-6-(2-methoxy-ethoxy)-1H-indole-2-yl]-phenyl}-carbamic acid ethyl ester] | 170 to 171

Row | SMILES | melting point [°C]
21 | CCOc1ccc2c(C#N)c(-c3ccc(NC(=O)NCCO)cc3)n(C3CCC3)c2c1 [compound 1408, 1-[4-(3-cyano-1-cyclobutyl-6-ethoxy-1H-indol-2-yl)-phenyl]-3-(2-hydroxy-ethyl)-urea] | 199 to 203
22 | CC(C)OC(=O)Nc1ccc(-c2c(C#N)c3ccc(OCC(O)Cn4cncn4)cc3n2C2CCC2)cc1 (stereo not shown) [compound 1420, {4-[3-Cyano-1-cyclobutyl-6-(2-hydroxy-3-[1,2,4]triazol-1-yl-propoxy)-1H-indol-2-yl]-phenyl}-carbamic acid isopropyl ester] | 209 to 215
23 | COCCOc1ccc2c(C#N)c(-c3ccc(NC(=O)OC(C)C4CC4)cc3)n(C3CCC3)c2c1 (stereo not shown) [compound 1423, [4-(3-cyano-1-cyclobutyl-6-(2-methoxyethoxy)-1H-indol-2-yl)-phenyl]-carbamic acid 1-cyclopropyl-ethyl ester] | 192 to 193
24 | CCOc1ccc2c(C#N)c(-c3ccc(NC(=O)OCCOCCOC)cc3)n(C3CCC3)c2c1 [compound 1424, [4-(3-cyano-1-cyclobutyl-6-ethoxy-1H-indol-2-yl)-phenyl]-carbamic acid 2-(2-methoxyethoxy)-ethyl ester] | 65 to 72
25 | CCOc1ccc2c(C#N)c(-c3ccc(N(CC)C(=O)NC4CCCC4)cc3)n(C3CCC3)c2c1 [compound 1425, 1-[4-(3-cyano-1-cyclobutyl-6-ethoxy-1H-indol-2-yl)-phenyl]-3-cyclopenyl-1-ethyl-urea] | 153 to 160
26 | CC(C)OC(=O)Nc1ccc(-c2c(C#N)c3ccc(OCCC4COC(C)(C)O4)cc3n2C2CCC2)cc1 (stereo not shown) [compound 1428, (4-{3-cyano-1-cyclobutyl-6-[2-(2,2-dimethyl-[1,3]dioxolan-4-yl)-ethoxy]-1H-indol-2-yl}-phenyl)-carbamic acid isopropyl ester] | 141 to 145
27 | CC(C)OC(=O)Nc1ccc(-c2c(C#N)c3ccc(OCCC(O)CO)cc3n2C2CCC2)cc1 (stereo not shown) [compound 1429, {4-[3-cyano-1-cyclobutyl-6-(3,4-dihydroxy-butoxy)-1H-indol-2-yl]-phenyl}-carbamic acid isopropyl ester] | 132 to 134
28 | CCOc1ccc2c(C#N)c(-c3ccc(NCCc4ccccn4)cc3)n(C3CCC3)c2c1 [compound 1433, 1-cyclobutyl-6-ethoxy-2-[4-(2-pyridin-2-yl-ethylamino)-phenyl]-1H-indole-3-carbonitrile] | 153 to 156
29 | CC(OC(=O)Nc1ccc(-c2c(C#N)c3ccc(OC4CCCO4)cc3n2C2CC2)cc1)C1CC1 (stereo not shown) [compound 1444, {4-[3-cyano-1-cyclopropyl-6-(tetrahydrofuran-2-yloxy)indol-2-yl]phenyl}carbamic acid 1-cyclopropylethyl ester] | 189 to 191
30 | CC(C)OC(=O)Nc1ccc(-c2c(C#N)c3ccc(OC4CCOCC4)cc3n2C2CCC2)cc1 [compound 2616, {4-[3-cyano-1-cyclobutyl-6-(tetrahydro-pyran-4-yloxy)-1H-indole-2-yl]-phenyl}-carbamic acid isopropyl ester] | 197 to 199
31 | CCOc1ccc2c(I)c(-c3ccc(NC(=O)OC(C)C)cc3)n(CC3CC3)c2c1 [compound 2634, [4-(1-cyclopropylmethyl-6-ethoxy-3-iodo-1H-indol-2-yl)-phenyl]-carbamic acid isopropyl ester] | 135 to 140
32 | CCOc1ccc2c(C#CC3CC3)c(-c3ccc(NC(=O)OC(C)C)cc3)n(CC3CC3)c2c1 [compound 2635, [4-(3-cyclopropylethynyl-1-cyclopropylmethyl-6-ethoxy-1H-indol-2-yl)-phenyl]-carbamic acid isopropyl ester] | 175 to 180
33 | CCOc1ccc2c(F)c(-c3ccc(NC(=O)OC(C)C)cc3)n(CC3CC3)c2c1 [compound 2640, [4-(1-Cyclopropylmethyl-6-ethoxy-3-fluoro-1H-indol-2-yl)-phenyl]-carbamic acid isopropyl ester] | 178 to 184
34 | CCOc1ccc2c(Br)c(-c3ccc(NC(=O)OC(C)C)cc3)n(CC3CC3)c2c1 [compound 2691, [4-(3-bromo-1-cyclopropylmethyl-6-ethoxy-1H-indol-2-yl)-phenyl]-carbamic acid isopropyl ester] | 128 to 132
35 | CC(OC(=O)Nc1ccc(-c2c(C#N)c3ccc(OCCS(C)(=O)=O)cc3n2C2CCC2)cc1)C1CC1 (stereo not shown) [compound 2695, {4-[3-Cyano-1-cyclobutyl-6-(2-methanesulfonyl-ethoxy)-1H-indol-2-yl]-phenyl}-carbamic acid 1-cyclopropyl-ethyl ester] | 135 to 140
36 | CCSc1ccc2c(C#N)c(-c3ccc(NC(=O)O[C@H](C)C4CC4)cc3)n(C3CCC3)c2c1 [compound 2720, (R)-[4-(3-cyano-1-cyclobutyl-6-ethylsulfanyl-1H-indol-2-yl)-phenyl]-carbamic acid 1-cyclopropyl-ethyl ester] | 120 to 122
37 | CC(C)OC(=O)Nc1ccc(-c2c(C#N)c3ccc(N4CCOCC4)cc3n2C2CCC2)cc1 [compound 2800, [4-(3-cyano-1-cyclobutyl-6-morpholin-4-yl-1H-indol-2-yl)-phenyl]-carbamic acid isopropyl ester] | 206 to 208
38 | COc1ccc2c(Cl)c(-c3ccc(NC(=O)OC(C)C)cc3)n(CC3CC3)c2c1 [compound 2804, [4-(3-chloro-1-cyclopropylmethyl-6-methoxy-1H-indol-2-yl)-phenyl]-carbamic acid isopropyl ester] | 171 to 177
39 | CC(OC(=O)Nc1ccc(-c2cc3ccc(Oc4ncccn4)cc3n2C2CCC2)cc1)C(F)(F)F (stereo not shown) [compound 2888, {4-[1-cyclobutyl-6-(pyrimidin-2-yloxy)-1H-indole-2-yl]-phenyl}-carbamic acid 2,2,2-trifluoro-1-methyl-ethyl ester] | 99 to 101
40 | C[C@@H](OC(=O)Nc1ccc(-c2c(C#N)c3ccc(OCS(C)(=O)=O)cc3n2C2CCC2)cc1)C1CC1 [compound 2988, (R)-[4-(3-cyano-1-cyclobutyl-6-methanesulfonylmethoxy-1H-indol-2-yl)-phenyl]-carbamic acid 1-cyclopropyl-ethyl ester] | 218 to 223
